SMILES strings stand for the structures.

One may read the logP as a log measure of how a compound divides between an organic and an aqueous phase. Higher therefore signals higher lipophilicity.

The data set can be described thus: method code SF, from DOI: 10.1039/p29920001643.
Turning to `[O-][n+]1onc2ccccc21`, the logP came out at 1.43. The figure for `Cc1no[n+]([O-])c1C=O` is 1.29. Under `Cc1no[n+]([O-])c1C` stands 0.23.

In turn, `O=Cc1no[n+]([O-])c1-c1ccccc1` registered a logP of 2.61. The figure for `Cc1nonc1[N+](=O)[O-]` is 0.97.

Consider `CC(=O)c1no[n+]([O-])c1C`, for which the logP amounted to 0.98. The figure for `Nc1no[n+]([O-])c1-c1ccccc1` is 1.47; for `CC(=O)Nc1nonc1C` it is 0.17.

`CNC(=O)Nc1nonc1C` had a lipophilicity (logP) of 0.3. Under `[O-][n+]1onc(Cl)c1-c1ccccc1` stands 2.7. Under `Cc1no[n+]([O-])c1C(N)=O` stands 0.36. `Cc1no[n+]([O-])c1S(=O)c1ccccc1` (stereo unspecified) gave a logP of 1.75.

`Cc1nonc1C(N)=O`: the log partition coefficient (logP) came out at 0.31. Compound `Cc1nonc1Cc1ccc([N+](=O)[O-])cc1` returned a logP of 2.21. Under `Cc1nonc1S(=O)(=O)c1ccccc1` stands 2.36; under `Nc1c(-c2ccccc2)no[n+]1[O-]`, 1.42. `COC(=O)Nc1nonc1C`: the logP came out at 0.42. `Cc1no[n+]([O-])c1N`: the log partition coefficient (logP) was -0.32. Under `Cc1nonc1N` stands 0.09; under `Cc1c(S(=O)c2ccccc2)no[n+]1[O-]` (stereo unspecified), 1.5; under `CC(=O)c1c(C)no[n+]1[O-]`, 0.8. Under `Clc1nonc1-c1ccccc1` stands 3.2; under `Cc1nonc1C`, 0.71; under `Cc1nsnc1C`, 1.28. Under `Cc1c(-c2ccccc2)no[n+]1[O-]` stands 2.17; under `COC(=O)c1nonc1C`, 0.94; under `CCc1nonc1C`, 1.18. With `Cc1no[n+]([O-])c1Cl`, the logP stood at 0.9.

Regarding `[O-][n+]1onc(-c2ccccc2)c1-c1ccccc1`, the log partition coefficient (logP) worked out at 3.64. `Cc1nonc1S(=O)c1ccccc1` (stereo unspecified) yielded a logP of 1.76.

Take `Nc1nonc1NC(=O)c1ccccc1`: the log partition coefficient (logP) came out at 1.41. Under `Cc1c(C(N)=O)no[n+]1[O-]` stands 0.03; under `OCc1nonc1-c1ccccc1`, 1.92; under `c1ccc2nsnc2c1`, 1.98.

`CC(=O)Nc1nonc1N` had a logP of -0.23.

Consider `c1ccc(-c2nonc2-c2ccccc2)cc1`, for which the logP is 3.83.

`Cc1c(S(=O)(=O)c2ccccc2)no[n+]1[O-]` registered a logP of 2.03. The figure for `Nc1nonc1-c1ccccc1` is 1.81; for `COC(=O)c1c(C)no[n+]1[O-]` it is 0.69; for `Cc1c(Cc2ccccc2)no[n+]1[O-]` it is 2.08. The figure for `Cc1c(N)no[n+]1[O-]` is -0.17; for `c1cnon1` it is 0.16; for `COC(=O)c1no[n+]([O-])c1C` it is 0.56. Under `[O-][n+]1onc(-c2ccccc2)c1CO` stands 1.77. `Cc1no[n+]([O-])c1-c1ccccc1` registered a logP of 2.16. Under `CCCc1nonc1C` stands 1.71.

Compound `Cc1no[n+]([O-])c1Sc1ccccc1` gave a logP of 2.74. Under `Cc1nonc1-c1ccccc1` stands 2.59. Under `CCNc1nonc1N` stands 0.51; under `Nc1nonc1N`, -0.49; under `Cc1no[n+]([O-])c1Cc1ccccc1`, 2.22. The figure for `Cc1nonc1Sc1ccccc1` is 2.92; for `CCS(=O)(=O)c1no[n+]([O-])c1C` it is 0.65; for `O=Cc1c(-c2ccccc2)no[n+]1[O-]` it is 2.92. On to `c1ccc2nonc2c1`, for which the logP was found to be 1.69. In turn, `O=[N+]([O-])c1nonc1-c1ccccc1` displayed a logP of 2.63. Under `[O-][n+]1onc(CO)c1-c1ccccc1` stands 1.64; under `[O-][n+]1onc(Cc2ccccc2)c1Cc1ccccc1`, 3.65. In turn, `CNC(=O)c1nonc1C` returned a lipophilicity (logP) of 0.56. Under `Cc1c(C=O)no[n+]1[O-]` stands 1.02.

`Cc1c(Cl)no[n+]1[O-]` yielded a logP of 1.02.

The values are drawn from the SangsterLogP compilation.
